Patent publication US8481521B2, “Methods of treating cell proliferative disorders” (Rigel Pharmaceuticals, Inc., priority 2005, dated 2013)
“And” between values parts separate entries of the source, which are not always exact repeats. Identical values can stand only once. Like-named read-outs stand apart in the source and are kept apart here.

What was measured:
[1] = Solubility of drug and phosphate prodrug; format: physicochemical; conditions: water solubility; read-out: Solubility
Description: In contrast, Compound 4 is highly polar at neutral pH. Measured solubility values are consistent with the predicted cLogD values at pH=7.5.

[2] = tested on: MV4-11 human acute myeloid leukemia cells; format: in vivo; conditions: for Hazard ratio: 40 mg/kg PO bid vs vehicle; for % Reduction from Vehicle Control, Bone Marrow / % Reduction from Vehicle Control, Peripheral blood: 40 mg/kg PO, bid daily
Description: At the end of the acclimatization period for the animals (>3 weeks in this study), mice were pretreated with sterile filtered (using a […] syringe filter) Cyclophosphamide prepared in 0.9% sterile saline (Sigma, St Louis, Mo.) by intraperitoneal injection of 150 mg/kg/day for 2 days followed by a rest period of 72 hours prior to intravenous (i.v.) injection of leukemia cells via the lateral tail vein, as described below.
On day 0 of the study, mice were inoculated once by intravenous tail vein injection of 5 or 10 million human MV4-11 leukemia cells resuspended in 100 microliters of fresh media as outlined in Table 1.
After mice were inoculated with human MV4-11 cells (day 0), dosing began on day 17 of the study. Mice were dosed orally (PO) twice daily (bid) for the duration of the study with either Vehicle or 40 mg/kg VII at 5 mL/kg dose volume with a minimum separation of 8 hours between doses
This study was designed to assess the effects of various doses of VII on tumor engraftment, disease progression, severity, and overall survival in a murine intravenous MV4-11 leukemia model using NOD-SCID immunocompromised mice as a host with cyclophosphamide pretreatment to enhance tumor engraftment.
This study was conducted in an effort to confirm a previous efficacy data from study, but also to determine if 5 or 10 million cell inoculations would yield similar inconsistencies in tumor cell engraftment in the bone marrow and peripheral blood or alter the resultant mortality in these mice. Since a detectable level of engraftment in some animals was observed as early as 4 weeks post tumor cell injection in pilot studies and historical efficacy data had been determined with this regimen, animals were treated orally (PO) with vehicle or R945788 calcium salt at 40 mg/kg on a twice per day (bid) schedule, every day beginning approximately 2 weeks after tumor cell injection. Animals were continued on this regimen until euthanized or until the end of the study. In this experiment, all surviving mice were terminated when mice reached approximately 5 months of age (day 83 of the study) in order to limit the affects of the spontaneous thymoma development, which can be seen in NOD-SCID mice beginning at approximately 5-6 months of age.
On day 0 (Aug. 12, 2005), mice were i.v. injected with human MV4-11 cells in fresh medium at 5 or 10 million cells per mouse via the lateral tail vein. By day 3 post MV4-11 cell injection (on Aug. 15, 2005), one mouse was excluded due to early death from excessive body weight loss prior to randomization or treatment, potentially due to cyclophosphamide treatment. Remaining animals were randomized into treatment groups using body weights and dosing began on day 17 post cell injection (Aug. 29, 2005). Mean body weights of groups 1-4 were 20.66±0.43, 20.23±0.41, 20.18±0.54, and 20.88±0.59, respectively. Treatment groups are outlined in Table 1:
Overall disease severity was determined from a combination of body weight loss, clinical observations, necropsy findings, and quantitation of tumor cell engraftment in selected tissues. Mice were weighed 2-3 times weekly and percent weight change calculated. At the first indication of morbidity, hind limb paralysis with apparent wasting, severe cachexia or weight loss greater than 20%, involving lethargy, ruffled fur etc, as outlined in IACUC Protocol Rigel 6-2002 “Efficacy of Novel Chemotherapeutics in Human/Mouse Tumor Xenograft Models”, animals were removed from the study and euthanized. At sacrifice, animals were anesthetized with CO2 gas and blood was be collected by cardiocentesis. Blood from animal was transferred to K2EDTA coated Microtainer (lavendar top) tubes. Whole blood was placed indirectly on ice and processed for flow cytometric staining, as described in section below. To further assess disease severity, the location and description of palpable or suspected tumors on gross examination was carefully noted upon necropsy. […]

[3] = tested on: phosphorylated histone H3 (phH3); assay: Phosphorylated histone H3 immunohistochemistry of MV4-11 tumor xenografts; format: in vivo, human; conditions: vs vehicle treated MV4-11 xenografts
Description: Proliferation was assessed ex vivo in formalin fixed tumor sections from three randomly selected mice from this study using immunohistochemical staining of human-specific phosphorylated histone H3 (phH3) as a marker for tumor cell proliferation. Human phH3 expression was reduced in tumor sections in a dose-dependent manner following treatment with VII.

[4] = 5 million cells, 40 mg/kg, at sacrifice, listed as VII

SMILES: COc1cc(Nc2ncc(F)c(Nc3ccc4c(n3)N(COP(=O)(O)O)C(=O)C(C)(C)O4)n2)cc(OC)c1OC [Compound 4, N4-(2,2-dimethyl-4-[(dihydrogenphosphonoxy)methyl]-3-oxo-5-pyrido[1,4]oxazin-6-yl)-5-fluoro-N2-(3,4,5-trimethoxyphenyl)-2,4-pyrimidinediamine]
- solubility [1]: > 5000 µg/mL
- Median DOD (day of death) ([2]; 5E6 MV4-11 cells i.v., 40 mg/kg PO bid from day 17): 79 days
- Hazard ratio ([2]; 5E6 cells): 3.5
- % ILS (percent increase in life-span) ([2]; 5E6 cells, 40 mg/kg PO bid, vs vehicle median DOD 54 days): 45%
- animals necropsied showing visible or palpable tumors ([2]; 5 million cells, 40 mg/kg): 3 out of 11
- animals terminated by study termination ([2]; 5 million cells, 40 mg/kg): 7 of 12
- surviving mice at day 83 ([2]; 5 million cells, 40 mg/kg PO bid, group of 12): 5
- % Reduction from Vehicle Control, Bone Marrow ([2]; 5 million cells): 96%
- % Reduction from Vehicle Control, Peripheral blood ([2]; 5 million cells): 99%
- Bone Marrow: Mean % Tumor Cells (CD33+HLA+) [2, 4]: 1% and 1.03%
- Peripheral Blood: Mean % Tumor Cells (CD33+HLA+) [2, 4]: 0.6% and 0.59%
- Hazard ratio ([2]; 10E6 cells): 7.6
- animals necropsied showing visible or palpable tumors ([2]; 10 million cells, 40 mg/kg): 7 out of 13
- animals terminated by study termination ([2]; 10 million cells, 40 mg/kg): 4 out of 13
- surviving mice at day 83 ([2]; 10 million cells, 40 mg/kg PO bid, group of 13): 9
- % Reduction from Vehicle Control, Bone Marrow ([2]; 10 million cells): 59%
- % Reduction from Vehicle Control, Peripheral blood ([2]; 10 million cells, all samples): 80%
- Peripheral Blood: Mean % Tumor Cells (CD33+HLA+) ([2]; 10 million cells, 40 mg/kg, all samples): 10.32%
- Bone Marrow: Mean % Tumor Cells (CD33+HLA+) ([2]; 10 million cells, 40 mg/kg, at sacrifice, listed as VII): 5% and 5.21%
- mice survived to Day 83 ([2]; 10 million cells, 40 mg/kg, vehicle 0%): Over 50%
- tolerability in NOD-SCID mice ([2]; mouse, in vivo): well tolerated
- inhibition of phH3 staining ([3]; 20 mg/kg VII): 53%
- inhibition of phH3 staining ([3]; 40 mg/kg VII): 71%
